Results taken from patent US20190390277A1, “DIAGNOSIS OF PARKINSON'S DISEASE ON THE BASIS OF DECREASED OVERALL TRANSLATION” (ÅBO AKADEMI UNIVERSITY, priority 2016, published 2019).
“Also recorded” adds a separate entry of the source.

What was measured:
patient skin fibroblasts = assay: Nascent protein synthesis (AHA/Alexa-488) in PD patient skin fibroblasts; assay type: cell-based, human; settings: sporadic and G2019S PD fibroblasts; 1 μM IN1 or 0.01 μM MLi-2
Protocol: Methods. For FIG. 7, we measured mRNA translation in fibroblasts cultivated from patient skin biopsies using the non-canonical labelling approach outlined in example 4 with the following modifications. Fibroblasts were passaged upon reaching 95% confluence and assayed at passage 7-9. For measurement of nascent protein synthesis, fibroblasts at 48 h post plating were depleted of methionine and incubated with AHA, followed by AHA-click conjugation of Alexa-488 as described in the methods section of example 4. Average somatic fluorescent intensities were measured. As not all fibroblast lines could be assayed simultaneously, patient lines were paired with one or more control lines of equivalent passage and assayed on the same day.

dopaminergic neurons [1] = assay: Rotenone-induced neurite atrophy of TH-positive dopaminergic neurons in midbrain cultures; assay type: cell-based, rat; settings: 24 h; for effect on rotenone induced loss of neurites in dopaminergic neurons: LRRK2-IN1 1 μM, GSK-2578215A 1 μM, MLi-2 10 or 50 nM, with rotenone
Protocol: The cultures were immunostained for Tyrosine hydroxylase to identify dopaminergic neurons. The percentage of dopaminergic, TH-positive cells that had intact neurites are shown. […] Mean data +/− standard deviation from two independent experiments are shown. Over 300 cells were scored per condition. b) A representative fluorescence micrograph showing TH immunostaining (green) dopaminergic neurons is shown. (c,d) Treatment with three structurally different LRRK2 inhibitors, LRRK2-IN1 (1 μM), GSK-2578215A (1 μM) or MLi-2 (10 or 50 nM) prevented rotenone induced loss of neurites in the dopaminergic neurons. […] Standard errors of the mean are shown. #, p<0.0001.
Methods. Rotenone treatment of cell cultures—Midbrain neurons from P0 rat were plated at a density of 200,000 cells per well. At 3 days in vitro, cells were treated with rotenone in DMSO with or without IN1, GSK-2578215A of MLi-2 at the concentrations indicated. After 24 h, cells were fixed with 4% PFA in PBS and tyrosine hydroxylase (TH) was detected by standard immunostaining methods obvious to those skilled in the art. Cells were imaged using a Zeiss AxioVert 200M microscope. To measure atrophy, the % of TH-positive neurons with intact neurites was scored.

hippocampal neurons [2] = assay: FUNCAT (AHA/Alexa-488) protein translation in hippocampal neurons; assay type: cell-based, rat; settings: for dose (as low as) at which protein synthesis was significantly increased: hippocampal neuron somas and dendrites; for level of de novo protein synthesis (fluorescence intensity): hippocampal neurons, soma and dendrites
Excerpt: Objective. To test whether Lrrk2 regulated ribosomal function in neurons, we measured the effect of three structurally independent inhibitors of Lrrk2 on de novo protein synthesis using non-canonical amino acid labeling. Rat hippocampal neurons were labelled using L-azido-homoalanine (AHA), a methionine analogue, followed by copper-I-catalyzed alkyne-azide cycloaddition of Alexa-488 with an alkyne moiety to visualize newly synthesized proteins, as previously de-scribed^8.
Methods. Measuring protein translation in hippocampal neurons using FUNCAT. To measure protein translation, hippocampal neurons were plated at densities of 100,000 cells per well on round coverslips (1.3 cm diameter) in 24-well plates. Protein translation was measured following 20 h after plating. Cells were washed once and incubated with methionine-free DMEM medium (Gibco, Thermo Fisher Scientific) supplemented with 2 mM glutamine. Then 1 mM L-azidohomoalanine (AHA) was added for 30 min. Cells were washed with 1 ml PBS and fixed with 4% paraformaldehyde. LRRK2 inhibitors, when used, were added in the methionine-free medium and retained throughout the AHA labelling procedure. Cells were permeabilized in block solution (0.25% Triton X100, 0.2% BSA, 5% sucrose, 10% horse serum in PBS), and washed 5 times with 1 ml of 3% BSA in PBS. In situ labeling with AHA was achieved using a click-it reaction to covalently Alexa-488, using reagents from ThermoFisher Life Technologies (catalogue #A10267). Coverslips were mounted in Mowiol containing 2.5% 1,4-Diazabicyclo[2.2.2]octane. Fluorescent images were acquired using a Leica DMRE microscope and Hamamatsu Photonics ORCA C4742-95 CCD camera and Zen software (Carl Zeiss). Mean fluorescence intensities were measured from regions of interest in the perisomal region. Dendrite measurements were taken from line intensities (10 μm lines from the soma into the dendrite).

hippocampal neurons [3] = assay: S35-methionine metabolic labelling of de novo protein synthesis in hippocampal neurons; assay type: cell-based; settings: rotenone 0.01-10 μM, 2 hr
Protocol: Methods. Measurement of protein translation using various S35-methioine-labelling—In order to model PD in vitro, hippocampal neurons were metabolically labelled with S35-methionine. Hippocampal neurons in 24 well plates were transferred to Met/Cys-free medium (Invitrogen, Gibco). Cells were treated with for 30 min 37 C, 5% CO2. 50 μl per well of labeling medium (100 μCi Met-S35/ml) was added and cells grown at 37°, 5% CO2 for 2 hr in the presence or absence of rotenone (0.01-10 μM). Cells were washed and lysed in 75 μl Laemmli lysis buffer. Samples were separated by SDS PAGE, incubated with EN3HANCE (NEN), gels dried and exposed to auto-radiographic film with intensifying screen to determine relative levels of de novo protein synthesis.

Lrrk2 [4] = biological target: T1, Lrrk2 (Mesocricetus auratus, UniProt A0A1U7Q7Z2); assay: LRRK2 activity by phospho-S935-LRRK2 immunoblot in BHK21 cells; assay type: cell-based; settings: intact BHK21 cells, rotenone 4 h
T1 construct: endogenous in cells; host or cells: BHK21 cells
T1 sequence (A0A1U7Q7Z2 1-2527): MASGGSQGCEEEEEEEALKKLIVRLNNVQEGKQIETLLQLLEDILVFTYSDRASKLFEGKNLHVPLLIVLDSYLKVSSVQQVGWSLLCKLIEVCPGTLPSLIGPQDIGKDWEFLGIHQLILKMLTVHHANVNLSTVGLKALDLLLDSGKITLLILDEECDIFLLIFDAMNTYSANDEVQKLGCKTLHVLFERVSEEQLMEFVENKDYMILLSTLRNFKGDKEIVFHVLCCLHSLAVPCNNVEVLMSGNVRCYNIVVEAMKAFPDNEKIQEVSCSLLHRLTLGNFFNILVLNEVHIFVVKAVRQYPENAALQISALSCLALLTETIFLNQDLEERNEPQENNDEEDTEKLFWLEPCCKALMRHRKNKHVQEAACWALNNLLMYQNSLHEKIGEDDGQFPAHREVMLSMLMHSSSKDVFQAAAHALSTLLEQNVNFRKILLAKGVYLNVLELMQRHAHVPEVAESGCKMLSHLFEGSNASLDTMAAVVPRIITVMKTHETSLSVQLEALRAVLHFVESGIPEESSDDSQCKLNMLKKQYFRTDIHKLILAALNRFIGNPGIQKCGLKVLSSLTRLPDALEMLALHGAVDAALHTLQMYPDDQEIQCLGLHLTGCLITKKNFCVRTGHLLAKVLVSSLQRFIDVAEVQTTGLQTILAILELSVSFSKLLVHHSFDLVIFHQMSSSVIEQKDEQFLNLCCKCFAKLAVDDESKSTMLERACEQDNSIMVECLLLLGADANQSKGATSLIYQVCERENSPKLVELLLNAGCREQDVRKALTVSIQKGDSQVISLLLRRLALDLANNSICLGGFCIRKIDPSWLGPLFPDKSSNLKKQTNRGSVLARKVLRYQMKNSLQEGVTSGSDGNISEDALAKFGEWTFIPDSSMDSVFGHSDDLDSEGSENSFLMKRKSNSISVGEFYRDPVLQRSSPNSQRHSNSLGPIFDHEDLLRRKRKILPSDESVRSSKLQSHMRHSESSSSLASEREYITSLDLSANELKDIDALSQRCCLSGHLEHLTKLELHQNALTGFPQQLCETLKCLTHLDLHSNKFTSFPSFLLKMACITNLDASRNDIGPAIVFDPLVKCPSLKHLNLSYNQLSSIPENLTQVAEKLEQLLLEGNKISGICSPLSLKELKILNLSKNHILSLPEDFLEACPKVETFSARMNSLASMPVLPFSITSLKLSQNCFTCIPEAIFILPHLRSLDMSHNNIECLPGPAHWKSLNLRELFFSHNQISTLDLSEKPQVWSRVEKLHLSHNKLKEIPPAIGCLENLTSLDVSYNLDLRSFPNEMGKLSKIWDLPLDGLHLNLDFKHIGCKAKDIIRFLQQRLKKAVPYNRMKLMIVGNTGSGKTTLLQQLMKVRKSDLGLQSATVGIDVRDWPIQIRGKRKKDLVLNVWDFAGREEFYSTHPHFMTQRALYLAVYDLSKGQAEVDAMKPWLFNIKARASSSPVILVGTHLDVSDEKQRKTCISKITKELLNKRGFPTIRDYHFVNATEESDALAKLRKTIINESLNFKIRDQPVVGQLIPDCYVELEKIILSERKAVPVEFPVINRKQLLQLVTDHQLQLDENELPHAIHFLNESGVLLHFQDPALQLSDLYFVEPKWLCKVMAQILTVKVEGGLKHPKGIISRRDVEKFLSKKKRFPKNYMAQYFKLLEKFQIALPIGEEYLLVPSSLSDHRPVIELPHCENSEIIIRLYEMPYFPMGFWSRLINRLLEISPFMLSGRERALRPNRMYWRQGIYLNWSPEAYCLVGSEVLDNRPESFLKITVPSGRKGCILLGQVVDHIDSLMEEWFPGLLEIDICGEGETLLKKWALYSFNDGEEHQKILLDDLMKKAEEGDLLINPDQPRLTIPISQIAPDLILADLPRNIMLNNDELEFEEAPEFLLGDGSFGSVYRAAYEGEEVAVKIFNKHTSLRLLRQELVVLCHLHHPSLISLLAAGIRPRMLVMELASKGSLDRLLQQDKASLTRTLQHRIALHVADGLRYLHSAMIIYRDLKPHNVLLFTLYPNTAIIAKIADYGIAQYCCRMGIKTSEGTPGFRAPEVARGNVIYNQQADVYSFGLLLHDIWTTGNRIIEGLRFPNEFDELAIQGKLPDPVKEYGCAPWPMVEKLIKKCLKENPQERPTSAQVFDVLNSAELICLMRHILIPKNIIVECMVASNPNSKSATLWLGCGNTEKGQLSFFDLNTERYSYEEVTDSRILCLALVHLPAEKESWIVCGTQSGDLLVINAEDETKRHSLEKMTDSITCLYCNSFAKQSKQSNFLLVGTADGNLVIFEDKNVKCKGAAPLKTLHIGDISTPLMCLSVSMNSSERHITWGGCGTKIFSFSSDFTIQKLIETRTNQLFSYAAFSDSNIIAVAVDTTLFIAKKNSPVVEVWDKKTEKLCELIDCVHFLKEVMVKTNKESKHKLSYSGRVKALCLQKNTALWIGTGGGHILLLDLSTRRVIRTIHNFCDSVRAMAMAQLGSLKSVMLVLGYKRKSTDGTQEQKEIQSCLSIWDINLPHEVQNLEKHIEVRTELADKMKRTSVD
Protocol: Methods. To examine the effect of rotenone treatment on LRRK2 activity, BHK21 cells were treated with or without the indicated dose of rotenone for 4 h. Cells were lysed in Laemmli buffer and proteins separated by SDS PAGE. LRRK2 activity was determined by immunoblotting with an antibody detecting phospho-S935-LRRK2. Blots were reprobed with an antibody detecting LRRK2 to establish loading variability. LRRK2 activity was quantified by densitometry of gel exposures captured using the Gel Doc XR system (Biorad).

PBMCs and fibroblasts = assay: AHA labelling, biotin-alkyne enrichment and anti-biotin-HRP immunoblot of nascent proteins in PBMCs and fibroblasts; assay type: cell-based, human; settings: AHA-labelled PBMCs and fibroblasts, streptavidin bead purification
Excerpt: Patient samples were from the NINDS-Coriell Institute in the USA, the European Biobank in Milan and the Turku University Hospital (T.U.H.) cohort in Finland. a) A heat map showing intensity values for MS/MS-identified nascent proteins from AHA-labelled cells (fibroblasts and PBMCs). Nascent proteins were isolated following covalent linkage to alkyne-agarose beads. After tryptic digestion, the released peptides were sequenced by mass spectrometry and identified using Maxquant software. As negative controls to determine non-specific protein binding, cells were labelled with methionine instead of AHA. […] This approach yields a set of peptides that can be rapidly quantitated using a mass spectrometer using data dependant acquisition (DDA) using Selected Reaction Monitoring or Parallel Reaction Monitoring or by data independent acquisition (DIA) or using other types of mass spectrometry methods. […] It is compared to samples that were labelled with methionine instead of AHA. […]
Sepharose was washed 2× with 1 ml LiCl buffer (500 mM LiCl2, 100 mM Tris, pH 7.6, 0.1% TX100, 1 mM DTT), followed by 4×1 ml PBS washes. […] Samples were either in-gel digested with trypsin for MS/MS identification (example 1) or transferred to nitrocellulose for quantitative immunoblot detection using an anti-biotin, horse-radish peroxidase (HRP)-conjugated antibody (Cell Signalling Technology) (example 9b). […]

dopaminergic neurons [5] = assay: FUNCAT protein translation in midbrain cultures (dopaminergic neurons); assay type: cell-based; settings: TH-positive neurons, 3 days post-plating
Excerpt: FIG. 6 uses click chemistry to label newly synthesised proteins with AHA. […] Dopaminergic neurons are visualised by tyrosine hydroxylase (TH) staining. a) Representative images of midbrain cultures treated with increasing concentrations of Lrrk2 IN2, and stained for TH is shown. b,c) protein translation in the somas of TH-positive and TH-negative cells is shown. d) The effect of anisomycin (to inhibit translation) on mid brain culture de novo protein synthesis is shown by representative images. e) Quantitative data from d is shown. p-values are shown on the graphs above the data points to which they apply.
Methods. To measure protein translation in dopaminergic neurons, mid brain cultures were plated at densities of 500,000 cells per well on round coverslips (1.3 cm diameter) in 24-well plates. At 3 days post-plating neurons underwent FUNCAT (see example 4). Dopaminergic neurons were detected by tyrosine hydroxylase immunofluorescence. Fluorescent intensity was measured as described in example 4 (methods).

Lrrk2 [6] = biological target: Lrrk2 (Homo sapiens, UniProt Q5S007); settings: blocks Lrrk2; read-out: biochemical IC50; cited from earlier work
Chain of Lrrk2 (Homo sapiens, UniProt Q5S007) (Q5S007 whole entry, species assumed): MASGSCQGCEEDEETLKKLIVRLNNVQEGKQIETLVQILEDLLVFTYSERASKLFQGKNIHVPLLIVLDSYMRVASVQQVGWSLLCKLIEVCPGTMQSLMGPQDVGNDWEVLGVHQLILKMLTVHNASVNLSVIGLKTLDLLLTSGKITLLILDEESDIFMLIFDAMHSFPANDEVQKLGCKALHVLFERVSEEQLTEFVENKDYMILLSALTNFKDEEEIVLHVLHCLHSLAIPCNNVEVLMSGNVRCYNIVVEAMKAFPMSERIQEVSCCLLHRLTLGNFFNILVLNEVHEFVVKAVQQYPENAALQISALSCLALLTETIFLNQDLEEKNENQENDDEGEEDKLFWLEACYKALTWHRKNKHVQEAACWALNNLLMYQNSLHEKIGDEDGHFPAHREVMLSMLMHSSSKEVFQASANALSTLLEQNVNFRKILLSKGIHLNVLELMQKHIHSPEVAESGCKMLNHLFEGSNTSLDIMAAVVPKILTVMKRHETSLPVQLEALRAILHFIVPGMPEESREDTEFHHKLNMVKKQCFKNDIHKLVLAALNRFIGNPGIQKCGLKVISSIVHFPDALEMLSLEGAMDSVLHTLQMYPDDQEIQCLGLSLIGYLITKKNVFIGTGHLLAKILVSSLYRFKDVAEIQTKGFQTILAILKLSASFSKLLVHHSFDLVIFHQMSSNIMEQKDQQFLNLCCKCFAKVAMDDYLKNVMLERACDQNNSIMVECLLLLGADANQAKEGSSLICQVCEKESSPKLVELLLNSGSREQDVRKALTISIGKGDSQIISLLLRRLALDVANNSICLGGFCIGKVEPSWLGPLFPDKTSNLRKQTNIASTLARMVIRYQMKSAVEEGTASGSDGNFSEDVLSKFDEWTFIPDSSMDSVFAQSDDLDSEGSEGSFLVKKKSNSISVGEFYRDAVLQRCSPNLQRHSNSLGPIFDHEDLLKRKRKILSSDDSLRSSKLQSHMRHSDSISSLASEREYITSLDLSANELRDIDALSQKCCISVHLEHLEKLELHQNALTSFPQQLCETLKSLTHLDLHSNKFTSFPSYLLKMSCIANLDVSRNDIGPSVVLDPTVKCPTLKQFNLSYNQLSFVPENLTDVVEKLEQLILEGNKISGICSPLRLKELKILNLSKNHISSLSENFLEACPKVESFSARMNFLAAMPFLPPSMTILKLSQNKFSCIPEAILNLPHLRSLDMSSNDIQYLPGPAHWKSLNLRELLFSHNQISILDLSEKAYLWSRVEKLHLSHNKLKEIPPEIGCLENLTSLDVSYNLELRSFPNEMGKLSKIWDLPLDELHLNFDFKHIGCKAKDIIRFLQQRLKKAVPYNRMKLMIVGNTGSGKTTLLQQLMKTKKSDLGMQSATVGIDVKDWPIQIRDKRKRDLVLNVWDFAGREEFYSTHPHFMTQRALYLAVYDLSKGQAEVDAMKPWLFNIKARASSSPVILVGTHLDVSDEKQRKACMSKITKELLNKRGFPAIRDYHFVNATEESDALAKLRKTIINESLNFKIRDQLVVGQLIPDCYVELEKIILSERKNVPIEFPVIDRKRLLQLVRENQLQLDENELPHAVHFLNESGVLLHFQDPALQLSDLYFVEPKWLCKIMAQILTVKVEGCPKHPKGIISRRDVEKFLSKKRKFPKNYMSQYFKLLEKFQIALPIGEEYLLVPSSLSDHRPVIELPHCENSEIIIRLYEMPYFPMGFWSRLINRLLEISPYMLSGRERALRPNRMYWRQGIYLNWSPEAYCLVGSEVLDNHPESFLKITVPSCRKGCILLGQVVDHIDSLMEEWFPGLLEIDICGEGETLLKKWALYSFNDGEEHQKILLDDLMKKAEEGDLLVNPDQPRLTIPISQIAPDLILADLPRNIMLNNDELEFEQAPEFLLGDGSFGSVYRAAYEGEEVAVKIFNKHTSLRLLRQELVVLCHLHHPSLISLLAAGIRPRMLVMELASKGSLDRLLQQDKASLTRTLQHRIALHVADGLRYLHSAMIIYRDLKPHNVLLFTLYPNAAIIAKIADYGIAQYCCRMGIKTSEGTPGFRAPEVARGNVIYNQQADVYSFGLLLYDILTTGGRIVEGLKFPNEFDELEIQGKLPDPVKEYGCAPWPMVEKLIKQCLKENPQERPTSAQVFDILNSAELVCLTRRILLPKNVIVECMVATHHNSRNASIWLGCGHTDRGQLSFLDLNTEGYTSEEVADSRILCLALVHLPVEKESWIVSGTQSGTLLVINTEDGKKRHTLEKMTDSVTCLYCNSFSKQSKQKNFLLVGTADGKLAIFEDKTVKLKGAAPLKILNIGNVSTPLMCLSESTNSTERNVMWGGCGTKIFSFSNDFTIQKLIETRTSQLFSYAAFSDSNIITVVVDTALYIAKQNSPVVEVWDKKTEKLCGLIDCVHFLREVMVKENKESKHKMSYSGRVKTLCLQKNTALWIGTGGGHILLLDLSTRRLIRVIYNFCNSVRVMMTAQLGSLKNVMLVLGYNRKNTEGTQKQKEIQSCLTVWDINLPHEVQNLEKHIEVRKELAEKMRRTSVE

BHK21 cells = assay: Protein translation by AHA labelling and click Alexa-488 in rotenone-treated BHK21 cells; assay type: cell-based; settings: rotenone 100 nM, 1 μM LRRK2-IN1
Protocol: Furthermore, LRRK2-G2019S directly impairs protein translation in a reconstituted translation system. a) LRRK2 activity is inferred using a phospho-specific antibody ([…]) that recognises the active form of LRRK2. b) Quantitative data from 6 independent repeats as shown in (a). c, d) To determine whether inhibition of LRRK2 kinase activity could recover normal protein translation in cultured cells, BHK21 cells were treated with or without rotenone (100 nM) in the presence or absence of the indicated concentration of LRRK2-IN1. Protein translation was measured using non-canonical amino acid labelling with AHA followed by copper-catalysed click addition of alkyne-Alexa-488. Representative fluorescent micrographs (c) and quantitative data (d) are shown. […] Standard errors of the mean are plotted. #, p<0.0001.
To determine whether inhibition of LRRK2 activity could recover normal translation in BHK21 cells following rotenone treatment, BHK21 cells with or without prior treatment (30 min) with LRRK2 inhibitor (1 or 10 μM of IN1) were treated with rotenone or carrier (control) as indicated. Translation was visualized following AHA labeling and immunofluorescence quantified as earlier.

Compound	reversal of decreased protein synthesis in PD patient fibroblasts (patient skin fibroblasts)	effect on rotenone induced loss of neurites in dopaminergic neurons (dopaminergic neurons [1])	dose (as low as) at which protein synthesis was significantly increased (hippocampal neurons [2])	level of de novo protein synthesis (fluorescence intensity) (hippocampal neurons [2])	other results
3-(4-Pyrinimidyl) Indazole [MLi-2]	reversed to a normal level	prevented	0.01 µM	increased	
O=C(Nc1cccnc1)c1cc(-c2ccnc(F)c2)ccc1OCc1ccccc1 [GSK-2578215A]		prevented	0.1 µM		
C=C(C)[C@H]1Cc2c(ccc3c2O[C@@H]2COc4cc(OC)c(OC)cc4[C@@H]2C3=O)O1 [Rotenone]					de novo protein synthesis (S35-methionine labelling) (hippocampal neurons [3]): dose-dependently decreased; LRRK2 activity (phospho-S935-LRRK2) (Lrrk2 [4]): dose dependently increased; percentage of TH-positive cells with intact neurites (dopaminergic neurons [1]; rotenone 0-100 nM): induced atrophy; also recorded: dose dependent loss of neurites
COc1ccc(C[C@H]2NC[C@H](O)[C@H]2OC(C)=O)cc1 [Anisomycin]				effectively inhibited	anti-biotin immunoblot signal of nascent proteins (PBMCs and fibroblasts): no signal; protein translation (fluorescence) (dopaminergic neurons [5]): effectively reduced
COc1cc(C(=O)N2CCC(N3CCN(C)CC3)CC2)ccc1Nc1ncc2c(n1)N(C)c1ccccc1C(=O)N2C [LRRK2-IN1]	reversed	prevented	0.1 µM		IC50 (Lrrk2 [6]): 10 nM; protein translation level after rotenone (BHK21 cells): recovered to control level
